According to ChEMBL document CHEMBL1201862, “PubChem BioAssay data set” (2004):
Calls of active or inactive are those of the source.

Key:
H9c2 = assay: cells; assay type: functional, cell-based; settings: Rattus norvegicus, H9c2, Myocardium
HEK293 = assay: EBV LMP1 TES2 canonical NF-kB signalling blockers – cell-based, HEK293, luciferase, cherry-pick, dose response (AID 588343); assay type: functional; settings: Homo sapiens
Cytochrome P450 2C19 = Cytochrome P450 2C19 (Homo sapiens, UniProt P33261); assay: Cytochrome panel assay with activity outcomes. Panel member name: p450-cyp2c19 Compounds with AC50 equal or less than 10 uM are considered active; assay type: functional; settings: read-out: AC50
Cytochrome P450 3A4 = Cytochrome P450 3A4 (Homo sapiens, UniProt P08684);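 also: CYP3A4 tested as one member of a cytochrome P450 panel screen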
Cytochrome P450 2C9 = Cytochrome P450 2C9 (Homo sapiens, UniProt P11712)
Cytochrome P450 1A2 = target: T1, Cytochrome P450 1A2 (Homo sapiens, UniProt P05177);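 also: PubChem cytochrome P450 panel assay, CYP1A2 panel member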
T1 sequence (P05177 whole entry): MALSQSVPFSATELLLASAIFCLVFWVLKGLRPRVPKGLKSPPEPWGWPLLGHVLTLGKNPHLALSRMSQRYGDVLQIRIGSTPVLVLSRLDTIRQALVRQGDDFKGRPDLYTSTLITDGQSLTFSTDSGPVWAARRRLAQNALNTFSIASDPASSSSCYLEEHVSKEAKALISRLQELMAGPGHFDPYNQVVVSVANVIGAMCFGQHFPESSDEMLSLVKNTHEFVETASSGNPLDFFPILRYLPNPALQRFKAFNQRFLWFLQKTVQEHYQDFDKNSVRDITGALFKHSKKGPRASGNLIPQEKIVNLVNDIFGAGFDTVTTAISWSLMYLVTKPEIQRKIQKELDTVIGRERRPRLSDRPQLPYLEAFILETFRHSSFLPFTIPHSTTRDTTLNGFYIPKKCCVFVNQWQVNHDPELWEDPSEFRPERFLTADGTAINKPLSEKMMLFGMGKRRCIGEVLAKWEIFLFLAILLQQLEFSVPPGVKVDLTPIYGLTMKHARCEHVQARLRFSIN

[1] = Trypanosoma cruzi growth suppression in host cells – NIH3T3 host cells, beta-gal luminescence, confirmation (AID 2044); assay type: functional, cell-based;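 also: intracellular parasites grown in NIH/3T3 mouse fibroblasts as host cells; luminescent beta-galactosidase reporter signal from transgenic T. cruzi replicating inside host cells; inhibitors lower the luminescence signal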
INS1 = assay: INS-1E survival protection against cytokine death – cell-based, luminescence, retest, dose response (AID 449756); assay type: functional; settings: Rattus norvegicus;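 also: cell death triggered by IL-1 beta plus TNF-alpha plus IFN-gamma mixture; protective hits raise ATP signal compared with cytokine alone wells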
[2] = NIH3T3 cell viability loss – ATP luminescence, mouse fibroblasts, counter-screen, dose response (AID 2010); assay type: functional, cell-based;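 also: cells exposed to compound for about 90 hours before reading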
Vero = assay: cells; assay type: functional; settings: Chlorocebus sabaeus
[3] = target: T2, Sentrin-specific protease 8 (Homo sapiens, UniProt Q96LD8); assay type: functional;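 also: luminescence read-out of SENP8 inhibition, dose-response confirmation following an ultra-high-throughput screen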
T2 sequence (Q96LD8 whole entry): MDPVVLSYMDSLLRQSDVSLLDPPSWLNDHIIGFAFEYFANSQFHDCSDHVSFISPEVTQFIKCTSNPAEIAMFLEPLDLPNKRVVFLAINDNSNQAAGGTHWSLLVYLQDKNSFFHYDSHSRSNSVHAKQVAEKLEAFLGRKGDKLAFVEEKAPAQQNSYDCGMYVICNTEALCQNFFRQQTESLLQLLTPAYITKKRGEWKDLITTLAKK

H4 = assay: Luminescence Cell-Based Dose Response HTS to Identify Activators of 5'UTR Stem-Loop Driven Prion Protein mRNA Translation in H4 Neuroglioblastoma Cells. [Related pubchem assays: 1829 (Project Summary), 1814 (Primary HTS)]; assay type: functional; settings: Homo sapiens
[4] = test system: Streptococcus sp. 'group A'; assay: Streptococcus pyogenes SK(-)GAS viability under kanamycin – luminescence, BacTiterGlo, confirmation, counter-screen for streptokinase expression inhibitor project, dose response (AID 1900); assay type: functional, organism-based
[5] = Luminescence Cell-Based Dose Confirmation to Identify Activators of 5'UTR Stem-Loop Driven Alpha-Synuclein mRNA Translation in H4 Neuroglioblastoma Cells. [Related pubchem assays: 1829 (Project Summary), 1814 (Primary HTS)]; assay type: functional
Fatty acid synthase [6] = target: T3, Fatty acid synthase (Homo sapiens, UniProt P49327); assay: inhibition of human FAS-TE enzyme activity – biochemical, kinetic fluorescence intensity, dose response (AID 624326); assay type: functional;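 also: rate of fluorescence rise from hydrolysis of a fluorogenic O-methyl fluorescein ester substrate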
[7] = target: Induced myeloid leukemia cell differentiation protein Mcl-1 (Homo sapiens, UniProt Q07820); assay type: functional
[8] = Luminescence Cell-Based Dose Response to Identify Activators of 5'UTR Stem-Loop Driven Prion Protein mRNA Translation in H4-C Neuroglioblastoma Cells. [Related pubchem assays: 1829 (Project Summary), 1814 (Primary HTS)]; assay type: functional
Caspase-3 = target: T4, Caspase-3 (Homo sapiens, UniProt P42574); assay type: functional;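 also: Dose-response selectivity test against caspase-3 for candidate inhibitors of sentrin-specific proteases (SENPs)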
T4 sequence (P42574 whole entry): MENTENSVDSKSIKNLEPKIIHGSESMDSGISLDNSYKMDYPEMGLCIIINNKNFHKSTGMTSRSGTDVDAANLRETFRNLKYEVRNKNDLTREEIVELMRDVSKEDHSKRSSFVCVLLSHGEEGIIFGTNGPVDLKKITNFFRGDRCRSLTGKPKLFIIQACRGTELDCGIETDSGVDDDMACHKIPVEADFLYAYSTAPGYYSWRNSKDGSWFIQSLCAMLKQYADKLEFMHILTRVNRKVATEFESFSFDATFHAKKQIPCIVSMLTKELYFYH

Streptococcus = assay: GAS UMAA2166 growth inhibition – luminescence, BacTiterGlo, counter-screen for streptokinase expression inhibitor project, dose response (AID 1915); assay type: functional, organism-based;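 also: potency for reduction of bacterial viability or growth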
[9] = target: T5, Sentrin-specific protease 7 (Homo sapiens, UniProt Q9BQF6); assay type: functional;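 also: Luminescence-based dose-response confirmation of ultra-high-throughput screening hits, measuring inhibition of SENP7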
T5 sequence (Q9BQF6 whole entry): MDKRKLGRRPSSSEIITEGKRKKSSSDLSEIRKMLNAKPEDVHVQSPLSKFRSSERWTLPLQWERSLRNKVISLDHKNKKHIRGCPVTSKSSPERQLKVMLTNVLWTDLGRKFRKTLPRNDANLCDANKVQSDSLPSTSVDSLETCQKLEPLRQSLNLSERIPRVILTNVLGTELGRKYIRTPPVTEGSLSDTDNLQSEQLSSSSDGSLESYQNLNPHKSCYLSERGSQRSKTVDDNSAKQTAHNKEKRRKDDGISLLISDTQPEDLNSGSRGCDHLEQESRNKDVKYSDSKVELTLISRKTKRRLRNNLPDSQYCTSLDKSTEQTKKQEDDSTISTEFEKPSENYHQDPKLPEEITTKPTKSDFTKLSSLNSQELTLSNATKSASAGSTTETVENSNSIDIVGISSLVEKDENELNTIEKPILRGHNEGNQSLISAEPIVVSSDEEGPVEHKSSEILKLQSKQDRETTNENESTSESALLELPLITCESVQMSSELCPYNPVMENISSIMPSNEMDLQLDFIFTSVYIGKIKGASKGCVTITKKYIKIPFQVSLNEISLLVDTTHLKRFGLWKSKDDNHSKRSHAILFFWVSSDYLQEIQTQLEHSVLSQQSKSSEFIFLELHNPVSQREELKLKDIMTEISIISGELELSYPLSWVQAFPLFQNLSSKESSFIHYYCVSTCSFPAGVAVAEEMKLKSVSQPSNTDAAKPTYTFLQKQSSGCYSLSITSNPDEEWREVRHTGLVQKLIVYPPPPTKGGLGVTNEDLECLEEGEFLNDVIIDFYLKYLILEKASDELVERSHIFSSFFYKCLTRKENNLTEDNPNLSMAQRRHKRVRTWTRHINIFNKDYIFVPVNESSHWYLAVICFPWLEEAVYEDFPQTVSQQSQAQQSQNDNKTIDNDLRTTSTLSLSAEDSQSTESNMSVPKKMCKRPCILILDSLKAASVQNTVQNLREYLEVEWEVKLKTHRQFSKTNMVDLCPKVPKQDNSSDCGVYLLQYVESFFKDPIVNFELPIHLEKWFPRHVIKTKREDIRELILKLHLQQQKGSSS

[10] = target: T6, Sentrin-specific protease 6 (Homo sapiens, UniProt Q9GZR1); assay type: functional;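 also: Luminescence-based dose-response confirmatory assay of SENP6 inhibition, following up an ultra-high-throughput screen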
T6 sequence (Q9GZR1 whole entry): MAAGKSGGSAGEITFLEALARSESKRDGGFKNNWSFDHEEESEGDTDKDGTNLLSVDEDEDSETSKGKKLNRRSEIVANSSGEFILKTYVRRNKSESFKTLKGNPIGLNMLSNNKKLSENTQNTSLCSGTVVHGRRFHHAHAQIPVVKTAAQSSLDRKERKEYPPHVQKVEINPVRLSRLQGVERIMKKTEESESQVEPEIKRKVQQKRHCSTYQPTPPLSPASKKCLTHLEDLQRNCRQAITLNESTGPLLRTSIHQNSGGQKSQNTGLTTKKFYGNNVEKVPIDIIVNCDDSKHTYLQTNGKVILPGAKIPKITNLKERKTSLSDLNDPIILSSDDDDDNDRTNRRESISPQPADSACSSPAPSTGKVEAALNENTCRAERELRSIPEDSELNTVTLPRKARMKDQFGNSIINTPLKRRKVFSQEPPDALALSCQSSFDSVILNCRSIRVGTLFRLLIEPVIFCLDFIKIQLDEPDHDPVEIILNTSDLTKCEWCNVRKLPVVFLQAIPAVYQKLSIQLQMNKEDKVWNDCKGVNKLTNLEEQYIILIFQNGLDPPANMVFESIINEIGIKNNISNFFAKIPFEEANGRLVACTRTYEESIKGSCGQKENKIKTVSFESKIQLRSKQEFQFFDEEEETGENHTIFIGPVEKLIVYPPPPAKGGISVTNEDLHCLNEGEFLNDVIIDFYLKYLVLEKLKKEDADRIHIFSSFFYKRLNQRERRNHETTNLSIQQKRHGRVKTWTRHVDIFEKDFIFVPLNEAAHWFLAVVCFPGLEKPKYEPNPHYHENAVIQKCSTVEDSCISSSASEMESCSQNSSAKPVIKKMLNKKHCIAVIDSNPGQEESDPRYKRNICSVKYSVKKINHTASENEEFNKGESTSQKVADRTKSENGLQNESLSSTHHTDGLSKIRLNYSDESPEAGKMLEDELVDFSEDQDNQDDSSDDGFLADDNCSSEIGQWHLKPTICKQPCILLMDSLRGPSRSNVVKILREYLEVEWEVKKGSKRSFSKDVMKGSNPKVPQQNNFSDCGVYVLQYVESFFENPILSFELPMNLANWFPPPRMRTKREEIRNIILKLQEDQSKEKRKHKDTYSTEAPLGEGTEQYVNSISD

[11] = Luminescence Cell-Based Dose Response to Identify Activators of Luciferase Translation or Activity in H4-C Neuroglioblastoma Cells. [Related pubchem assays: 1829 (Project Summary), 1814 (Primary HTS)]; assay type: functional
Fatty acid synthase [12] = target: T3, Fatty acid synthase; assay: inhibition of human FAS-TE enzyme activity – biochemical, endpoint fluorescence intensity, uHTS hits, dose response (AID 624327); assay type: functional;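 also: fluorescence from hydrolysis of an O-methyl fluorescein acyl ester substrate by the enzyme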

T3 sequence (P49327 whole entry): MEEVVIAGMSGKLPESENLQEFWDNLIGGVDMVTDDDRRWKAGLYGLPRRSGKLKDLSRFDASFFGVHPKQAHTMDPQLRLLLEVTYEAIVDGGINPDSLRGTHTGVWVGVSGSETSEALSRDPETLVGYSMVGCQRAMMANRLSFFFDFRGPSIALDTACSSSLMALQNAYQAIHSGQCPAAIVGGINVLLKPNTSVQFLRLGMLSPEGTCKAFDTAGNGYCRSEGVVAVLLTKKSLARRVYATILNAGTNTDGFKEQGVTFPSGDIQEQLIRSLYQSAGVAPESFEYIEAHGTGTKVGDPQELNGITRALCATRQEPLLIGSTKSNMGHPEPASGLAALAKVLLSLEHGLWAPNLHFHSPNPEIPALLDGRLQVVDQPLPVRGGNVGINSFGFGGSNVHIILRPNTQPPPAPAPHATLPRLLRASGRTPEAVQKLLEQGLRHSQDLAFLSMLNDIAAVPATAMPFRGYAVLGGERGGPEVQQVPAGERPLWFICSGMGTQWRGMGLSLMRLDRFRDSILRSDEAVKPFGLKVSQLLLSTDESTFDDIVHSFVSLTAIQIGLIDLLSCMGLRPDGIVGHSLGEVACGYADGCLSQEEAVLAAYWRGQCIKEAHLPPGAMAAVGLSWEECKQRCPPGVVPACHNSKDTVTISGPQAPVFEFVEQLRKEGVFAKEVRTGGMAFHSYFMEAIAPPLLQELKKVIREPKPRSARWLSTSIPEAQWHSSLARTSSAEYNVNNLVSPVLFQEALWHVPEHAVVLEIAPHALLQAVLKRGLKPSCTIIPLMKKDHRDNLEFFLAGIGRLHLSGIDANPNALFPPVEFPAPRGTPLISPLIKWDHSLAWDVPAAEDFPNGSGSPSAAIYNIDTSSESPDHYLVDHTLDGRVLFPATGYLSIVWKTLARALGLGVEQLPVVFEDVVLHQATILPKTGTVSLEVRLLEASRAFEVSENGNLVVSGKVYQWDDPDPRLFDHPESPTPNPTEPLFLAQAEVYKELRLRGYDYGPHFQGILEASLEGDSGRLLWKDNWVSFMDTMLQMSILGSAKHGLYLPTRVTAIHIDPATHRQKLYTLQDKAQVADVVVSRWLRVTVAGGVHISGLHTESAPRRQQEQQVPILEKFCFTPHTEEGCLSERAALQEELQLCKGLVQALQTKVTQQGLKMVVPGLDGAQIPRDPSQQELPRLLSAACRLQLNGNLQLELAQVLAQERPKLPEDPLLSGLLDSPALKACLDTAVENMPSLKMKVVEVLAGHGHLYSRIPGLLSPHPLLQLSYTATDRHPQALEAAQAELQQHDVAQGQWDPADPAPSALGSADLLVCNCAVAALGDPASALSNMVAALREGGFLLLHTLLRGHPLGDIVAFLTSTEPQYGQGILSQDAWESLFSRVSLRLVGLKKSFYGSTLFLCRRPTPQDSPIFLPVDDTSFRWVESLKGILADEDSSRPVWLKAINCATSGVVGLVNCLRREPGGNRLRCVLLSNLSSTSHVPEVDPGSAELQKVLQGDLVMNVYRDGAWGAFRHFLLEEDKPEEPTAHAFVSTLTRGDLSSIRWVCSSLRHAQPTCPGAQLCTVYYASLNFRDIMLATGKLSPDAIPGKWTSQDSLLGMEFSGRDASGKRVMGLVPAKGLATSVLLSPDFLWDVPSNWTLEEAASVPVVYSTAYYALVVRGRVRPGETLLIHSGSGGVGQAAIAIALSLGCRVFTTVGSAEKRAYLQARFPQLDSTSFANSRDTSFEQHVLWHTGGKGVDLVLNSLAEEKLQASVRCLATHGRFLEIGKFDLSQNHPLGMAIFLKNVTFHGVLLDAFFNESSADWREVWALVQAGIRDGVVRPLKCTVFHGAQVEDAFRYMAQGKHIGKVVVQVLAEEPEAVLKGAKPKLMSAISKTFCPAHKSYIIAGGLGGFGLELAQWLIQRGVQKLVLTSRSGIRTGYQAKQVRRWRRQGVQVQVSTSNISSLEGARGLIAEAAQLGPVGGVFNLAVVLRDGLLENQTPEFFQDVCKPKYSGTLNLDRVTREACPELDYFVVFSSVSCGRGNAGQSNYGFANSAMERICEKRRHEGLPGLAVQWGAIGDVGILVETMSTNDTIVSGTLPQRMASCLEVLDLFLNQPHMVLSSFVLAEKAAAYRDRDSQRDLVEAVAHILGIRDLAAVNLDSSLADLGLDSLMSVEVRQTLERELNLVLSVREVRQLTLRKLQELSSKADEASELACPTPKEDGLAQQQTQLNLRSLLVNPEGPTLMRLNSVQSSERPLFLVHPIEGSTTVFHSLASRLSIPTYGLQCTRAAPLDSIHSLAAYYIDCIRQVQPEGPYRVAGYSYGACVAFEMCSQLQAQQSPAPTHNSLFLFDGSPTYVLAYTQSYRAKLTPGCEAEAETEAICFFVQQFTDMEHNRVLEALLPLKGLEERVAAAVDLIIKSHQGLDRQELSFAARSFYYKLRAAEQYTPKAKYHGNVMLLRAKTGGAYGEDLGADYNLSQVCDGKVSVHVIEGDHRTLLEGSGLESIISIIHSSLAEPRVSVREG
Sequence of Cytochrome P450 2C19 (P33261 whole entry): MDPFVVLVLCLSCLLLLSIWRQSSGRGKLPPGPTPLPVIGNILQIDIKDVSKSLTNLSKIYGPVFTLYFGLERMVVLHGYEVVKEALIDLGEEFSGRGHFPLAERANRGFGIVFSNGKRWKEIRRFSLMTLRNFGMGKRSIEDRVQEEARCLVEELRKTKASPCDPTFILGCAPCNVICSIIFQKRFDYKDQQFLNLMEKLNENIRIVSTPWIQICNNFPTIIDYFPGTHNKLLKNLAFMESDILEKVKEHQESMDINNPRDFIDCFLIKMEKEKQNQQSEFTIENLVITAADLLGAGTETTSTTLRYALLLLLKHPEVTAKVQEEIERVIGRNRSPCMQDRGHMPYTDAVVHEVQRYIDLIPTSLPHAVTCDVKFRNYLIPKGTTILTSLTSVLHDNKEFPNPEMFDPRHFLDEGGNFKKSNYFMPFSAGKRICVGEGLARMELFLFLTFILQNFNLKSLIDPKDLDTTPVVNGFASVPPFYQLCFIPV
Sequence of Cytochrome P450 3A4 (P08684 whole entry): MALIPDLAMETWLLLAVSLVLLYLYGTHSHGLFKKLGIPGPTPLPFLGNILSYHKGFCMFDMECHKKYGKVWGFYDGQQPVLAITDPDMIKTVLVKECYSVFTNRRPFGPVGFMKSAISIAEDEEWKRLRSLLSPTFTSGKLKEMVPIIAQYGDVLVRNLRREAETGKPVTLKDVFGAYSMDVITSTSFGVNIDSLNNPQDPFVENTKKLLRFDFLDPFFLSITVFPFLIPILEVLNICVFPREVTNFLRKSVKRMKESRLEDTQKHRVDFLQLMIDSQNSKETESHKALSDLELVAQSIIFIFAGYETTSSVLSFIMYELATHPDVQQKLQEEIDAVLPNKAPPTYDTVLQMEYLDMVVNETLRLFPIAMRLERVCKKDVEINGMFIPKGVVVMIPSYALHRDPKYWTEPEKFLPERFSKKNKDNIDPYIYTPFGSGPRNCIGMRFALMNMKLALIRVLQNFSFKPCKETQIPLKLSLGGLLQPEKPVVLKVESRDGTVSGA
Sequence of Cytochrome P450 2C9 (P11712 whole entry): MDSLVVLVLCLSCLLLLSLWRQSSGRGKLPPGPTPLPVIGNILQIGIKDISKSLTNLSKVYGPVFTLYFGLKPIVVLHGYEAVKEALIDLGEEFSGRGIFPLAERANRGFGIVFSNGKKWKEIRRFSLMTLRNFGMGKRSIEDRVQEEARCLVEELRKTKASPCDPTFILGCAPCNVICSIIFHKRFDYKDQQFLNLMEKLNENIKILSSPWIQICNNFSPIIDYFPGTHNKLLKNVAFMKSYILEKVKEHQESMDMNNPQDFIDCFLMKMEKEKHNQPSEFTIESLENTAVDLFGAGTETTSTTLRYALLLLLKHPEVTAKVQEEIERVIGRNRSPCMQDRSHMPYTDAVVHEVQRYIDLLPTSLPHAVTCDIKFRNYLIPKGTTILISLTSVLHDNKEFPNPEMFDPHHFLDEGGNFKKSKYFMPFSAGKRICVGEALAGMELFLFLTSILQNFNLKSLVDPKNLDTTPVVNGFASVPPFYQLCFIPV
Sequence of Induced myeloid leukemia cell differentiation protein Mcl-1 (Q07820 whole entry): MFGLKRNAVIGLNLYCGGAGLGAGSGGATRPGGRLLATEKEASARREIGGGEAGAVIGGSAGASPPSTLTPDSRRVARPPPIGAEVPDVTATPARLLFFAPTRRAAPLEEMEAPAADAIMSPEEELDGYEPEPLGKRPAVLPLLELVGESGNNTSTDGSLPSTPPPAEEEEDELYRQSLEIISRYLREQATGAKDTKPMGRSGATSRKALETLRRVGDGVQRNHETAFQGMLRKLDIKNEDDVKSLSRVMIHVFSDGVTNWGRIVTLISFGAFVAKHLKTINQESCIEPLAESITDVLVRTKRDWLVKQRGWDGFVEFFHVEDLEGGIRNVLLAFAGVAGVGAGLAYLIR

## COc1ccc(N(C(=O)c2cccc([N+](=O)[O-])c2)S(=O)(=O)c2cccs2)cc1
H9c2
  IC50: > 79 µM (inactive)

## N#Cc1c(Oc2ccc3ccccc3c2)sc(C(=O)c2ccccc2)c1N
HEK293
  AC50: 26.7 µM (active)

## CCc1ccccc1NC(=O)c1nnn(CC(=O)Nc2cccc(C)c2C)c1N
Cytochrome P450 2C19
  AC50: 2 µM (inconclusive)
Cytochrome P450 3A4
  AC50: 7.08 µM (inconclusive)
Cytochrome P450 2C9
  AC50: inconclusive
Cytochrome P450 1A2
  AC50: 12.6 µM (inconclusive)

## Cc1nc2c(-c3ccc(Cl)cc3)c(C)nn2c(O)c1Cc1ccccc1
[1]
  EC50: 0.938 µM (active)
INS1
  AC50: 2.5 µM (active)
[2]
  EC50: 2.97 µM (active)
HEK293
  AC50: 9.26 µM (active)

## COc1cc2ccnc(C=O)c2cc1OC
H9c2
  IC50: 14.5 µM (active)
Vero
  CC50: > 25 µM (active)

## O=C(O)c1ccc(N/N=C/c2ccc(-c3cc(Cl)ccc3Cl)o2)cc1
[3]
  IC50: > 100 µM (inactive)
H4
  EC50: < 0.1 µM (active)
[4]
  EC50: 2.44 µM (active)
[5]
  EC50: 0.121 µM (active)
Fatty acid synthase [6]
  IC50: 4.39 µM (active)
[7]
  IC50: 2.17 µM (active)
[8]
  EC50: 0.384 µM (active)
Caspase-3
  IC50: > 100 µM (inactive)
Streptococcus
  EC50: 2.61 µM (active)
[9]
  IC50: > 100 µM (inactive)
[10]
  IC50: > 100 µM (inactive)
[11]
  EC50: 0.482 µM (active)
Fatty acid synthase [12]
  IC50: 3.61 µM (active)

## COc1ccc(CSc2nc(O)c3ccccc3n2)cc1F
H9c2
  IC50: > 79 µM (inactive)
